These are literature values, as cited in patent US20110264374A1, “Method, Computer Program Product and System for Individual Assessment of Alcohol Sensitivity” (UNIVERSITY OF VIRGINIA PATENT FOUNDATION, priority 2007, published 2011).

The conditions of data set [1]: blood ethanol, oral ingestion; adopted from the literature [16, 24, 25].

What is called Cmax is the maximum level reached in the sampled fluid or tissue. `CCO` [ethanol, Ethyl Alcohol]: in data set [1], the “AUC (area under the curve)” value is 230 µg·h/mL, the Cmax was 161.4 µg/mL and the tmax is reported as 47 min. The “time to peak amount of alcohol in the blood” value (after consumption of one standard drink) is 30 to 45 min. Also, for the setting “in vivo”, the “remainder not metabolized, excreted in sweat, urine and breath” value was 10%; the “share of alcohol entering the body completely metabolized in the liver” value is “More than 90%”. Moreover, under “oral consumption”, the “share of consumed alcohol absorbed from the small intestine” value is “approx. 80%” and the “share of consumed alcohol absorbed from the stomach” value was “approx. 20%”.
